Laboratory results from US10590132B2, “Selective estrogen receptor down-regulators” (AstraZeneca AB, priority 2017, dated 2020).

Test: Human plasma protein binding (equilibrium dialysis)
Assay type: in vitro ADME
Details: dialysis 18 hours

First: Cc1c(OCCNCCCF)ncnc1[C@@H]1c2[nH]c3ccccc3c2C[C@@H](C)N1CC(F)(F)F [Example 114, 3-fluoro-N-(2-((5-methyl-6-((1S,3R)-3-methyl-2-(2,2,2-trifluoroethyl)-2,3,4,9-tetrahydro-1H-pyrido[3,4-b]indol-1-yl)pyrimidin-4-yl)oxy)ethyl)propan-1-amine]
Second: Cc1c(OCCNCCCF)ncnc1[C@@H]1c2[nH]c3ccccc3c2C[C@@H](C)N1CC(F)(F)CO [Example 115, 2,2-difluoro-3-((1S,3R)-1-(6-(2-((3-fluoropropyl)amino)ethoxy)-5-methylpyrimidin-4-yl)-3-methyl-1,3,4,9-tetrahydro-2H-pyrido[3,4-b]indol-2-yl)propan-1-ol]
The “Human plasma protein binding (% free)” value of the first is lower: 1.7 % free for the first, 11 % free for the second.

Compared with `Cc1c(OCCNCCC(F)F)ccc(F)c1[C@@H]1c2[nH]c3ccc(F)cc3c2C[C@@H](C)N1C[C@@H](C)C(=O)O` [Example 162, (R)-3-((1R,3R)-1-(3-(2-((3,3-difluoropropyl)amino)ethoxy)-6-fluoro-2-methylphenyl)-6-fluoro-3-methyl-1,3,4,9-tetrahydro-2H-pyrido[3,4-b]indol-2-yl)-2-methylpropanoic Acid], `C[C@@H]1Cc2c([nH]c3ccccc23)[C@@H](c2c(F)ccc(OCCN(C)CCCF)c2C(F)F)N1C[C@H](C)C(=O)O` [Example 148, (S)-3-((1R,3R)-1-(2-(difluoromethyl)-6-fluoro-3-(2-((3-fluoropropyl)(methyl)amino)ethoxy)phenyl)-3-methyl-1,3,4,9-tetrahydro-2H-pyrido[3,4-b]indol-2-yl)-2-methylpropanoic acid] is lower in “Human plasma protein binding (% free)” value: 27 % free for the first, 10 % free for the second.

Going from `COc1ncc(OCCNCCCF)cc1[C@@H]1c2[nH]c3ccccc3c2C[C@@H](C)N1CC(F)(F)F` [Example 36, 3-fluoro-N-(2-((6-methoxy-5-((1R,3R)-3-methyl-2-(2,2,2-trifluoroethyl)-2,3,4,9-tetrahydro-1H-pyrido[3,4-b]indol-1-yl)pyridin-3-yl)oxy)ethyl)propan-1-amine] to `COc1ncc(NCCNCCCF)cc1[C@@H]1c2[nH]c3ccccc3c2C[C@@H](C)N1CC(F)(F)F` [Example 41, N1-(3-fluoropropyl)-N2-(6-methoxy-5-((1R,3R)-3-methyl-2-(2,2,2-trifluoroethyl)-2,3,4,9-tetrahydro-1H-pyrido[3,4-b]indol-1-yl)pyridin-3-yl)ethane-1,2-diamine], the “Human plasma protein binding (% free)” value falls from 2 % free to 1.8 % free.

First: C[C@@H]1Cc2c([nH]c3ccccc23)[C@@H](c2c(F)cnc(OCCNCCCF)c2Cl)N1CC(F)(F)CO [Example 111, 3-((1R,3R)-1-(3-chloro-5-fluoro-2-(2-((3-fluoropropyl)amino)ethoxy)pyridin-4-yl)-3-methyl-1,3,4,9-tetrahydro-2H-pyrido[3,4-b]indol-2-yl)-2,2-difluoropropan-1-ol]
Second: C[C@@H]1Cc2c([nH]c3ccccc23)[C@@H](c2ccnc(OCCNCCCF)c2Cl)N1CC(F)(F)CO [Example 104, 3-((1R,3R)-1-(3-chloro-2-(2-((3-fluoropropyl)amino)ethoxy)pyridin-4-yl)-3-methyl-1,3,4,9-tetrahydro-2H-pyrido[3,4-b]indol-2-yl)-2,2-difluoropropan-1-ol]
The “Human plasma protein binding (% free)” value of the first is lower: 1.4 % free for the first, 2.8 % free for the second.

Going from `Cc1c([C@@H]2c3[nH]c4ccccc4c3C[C@@H](C)N2CC(F)(F)F)ccnc1OCCNCCCF` [Example 106, 3-fluoro-N-(2-((3-methyl-4-((1R,3R)-3-methyl-2-(2,2,2-trifluoroethyl)-2,3,4,9-tetrahydro-1H-pyrido[3,4-b]indol-1-yl)pyridin-2-yl)oxy)ethyl)propan-1-amine] to `Cc1ccc(OCCNCCCF)nc1[C@@H]1c2[nH]c3ccccc3c2C[C@@H](C)N1CC(F)(F)F` [Example 105, 3-fluoro-N-(2-((5-methyl-6-((1S,3R)-3-methyl-2-(2,2,2-trifluoroethyl)-2,3,4,9-tetrahydro-1H-pyrido[3,4-b]indol-1-yl)pyridin-2-yl)oxy)ethyl)propan-1-amine], the “Human plasma protein binding (% free)” value rises from 0.34 % free to 1 % free.

Compared with `C[C@@H]1Cc2c([nH]c3cc(F)ccc23)[C@@H](c2c(F)ccc(OCCNCCCF)c2F)N1CC(F)(F)CO` [Example 61, 3-((1R,3R)-1-(2,6-difluoro-3-(2-((3-fluoropropyl)amino)ethoxy)phenyl)-7-fluoro-3-methyl-1,3,4,9-tetrahydro-2H-pyrido[3,4-b]indol-2-yl)-2,2-difluoropropan-1-ol], `C[C@@H]1Cc2c([nH]c3ccc(F)cc23)[C@@H](c2c(F)ccc(OCCNCCCF)c2F)N1CC(F)(F)CO` [Example 15, 3-((1R,3R)-1-(2,6-difluoro-3-(2-((3-fluoropropyl)amino)ethoxy)phenyl)-6-fluoro-3-methyl-1,3,4,9-tetrahydro-2H-pyrido[3,4-b]indol-2-yl)-2,2-difluoropropan-1-ol] is higher in “Human plasma protein binding (% free)” value: 2.0 % free for the first, 3.2 % free for the second.

Compared with `C[C@@H]1Cc2c([nH]c3ccccc23)[C@@H](c2cc(OCCNCCCF)cc(F)c2F)N1CC(F)(F)F` [Example 30, N-(2-(3,4-difluoro-5-((1R,3R)-3-methyl-2-(2,2,2-trifluoroethyl)-2,3,4,9-tetrahydro-1H-pyrido[3,4-b]indol-1-yl)phenoxy)ethyl)-3-fluoropropan-1-amine], `C[C@@H]1Cc2c([nH]c3ccccc23)[C@@H](c2cccc(OCCNCCCF)c2Cl)N1CC(F)(F)F` [Example 25, N-(2-(2-chloro-3-((1R,3R)-3-methyl-2-(2,2,2-trifluoroethyl)-2,3,4,9-tetrahydro-1H-pyrido[3,4-b]indol-1-yl)phenoxy)ethyl)-3-fluoropropan-1-amine] is lower in “Human plasma protein binding (% free)” value: 0.72 % free for the first, 0.080 % free for the second.

Compared with `Cc1c(OCCNCCCF)ccnc1[C@@H]1c2[nH]c3ccccc3c2C[C@@H](C)N1CC(F)(F)CO` [Example 96, 2,2-difluoro-3-((1S,3R)-1-(4-(2-((3-fluoropropyl)amino)ethoxy)-3-methylpyridin-2-yl)-3-methyl-1,3,4,9-tetrahydro-2H-pyrido[3,4-b]indol-2-yl)propan-1-ol], `C[C@@H]1Cc2c([nH]c3ccccc23)[C@@H](c2c(F)ccc(OCCNCCCF)c2Cl)N1CC(C)(C)C(=O)O` [Example 131, 3-((1R,3R)-1-(2-chloro-6-fluoro-3-(2-((3-fluoropropyl)amino)ethoxy)phenyl)-3-methyl-1,3,4,9-tetrahydro-2H-pyrido[3,4-b]indol-2-yl)-2,2-dimethylpropanoic acid] is higher in “Human plasma protein binding (% free)” value: 7.1 % free for the first, 32 % free for the second.

First: COc1ccc(NCCNCCCF)c(F)c1[C@@H]1c2[nH]c3ccccc3c2C[C@@H](C)N1CC(F)(F)F [Example 90, N1-(2-fluoro-4-methoxy-3-((1R,3R)-3-methyl-2-(2,2,2-trifluoroethyl)-2,3,4,9-tetrahydro-1H-pyrido[3,4-b]indol-1-yl)phenyl)-N2-(3-fluoropropyl)ethane-1,2-diamine]
Second: C[C@@H]1Cc2c([nH]c3ccccc23)[C@@H](c2c(Cl)ccc(OCCNCCCF)c2F)N1C[C@H](C)C(=O)O [Example 54, (S)-3-((1R,3R)-1-(6-chloro-2-fluoro-3-(2-((3-fluoropropyl)amino)ethoxy)phenyl)-3-methyl-1,3,4,9-tetrahydro-2H-pyrido[3,4-b]indol-2-yl)-2-methylpropanoic acid]
The “Human plasma protein binding (% free)” value of the first is lower: 1.1 % free for the first, 18 % free for the second.
